In ChEMBL document CHEMBL4673341, “Anti-prion and α-Synuclein Aggregation Inhibitory Sterols from the Sponge Lamellodysidea cf. chlorea” (J Nat Prod, 2020):
The source made the active and inactive calls. The rule behind the calls is not given here.

How the values were obtained:
[1] = Anti-prion activity against [PSI+] protein in Saccharomyces cerevisiae STRg6 measured after 96 hrs by fluorimetry analysis
Saccharomyces cerevisiae = assay: Anti-prion activity against [URE3] protein in Saccharomyces cerevisiae SB34 at 100 uM measured after 96 hrs by fluorimetry analysis
[2] = target: Alpha-synuclein (Homo sapiens) (UniProt P37840); assay: Inhibition of human alpha-synuclein aggregation expressed in Escherichia coli BL21 (DE3) cells at 400 uM at 5:1 molar ratio after 72 hrs by ThT fluorescence assay relative to control; set-up: scale not given: the % may be the effect or the level left
[3] = target: Alpha-synuclein (Homo sapiens) (UniProt P37840); assay: Binding affinity to human alpha-synuclein aggregation expressed in Escherichia coli BL21 (DE3) cells at 50 uM at 1:1 molar ratio after 3 hrs by (+) HRESIMS analysis

Row | Compound | EC50 [1] [µM] | Activity (Saccharomyces cerevisiae) | Activity [2] [%] | Activity [3]
1 | C[C@@H](C/C=C/[C@@H](C)[C@H]1CC[C@@H]2[C@]1(C)CC[C@@H]1[C@@]3(C)CC[C@@H](O)C[C@@H]3C[C@@H](O)[C@]12O)COS(=O)(=O)O (relative stereo) | 13.8 | – | – | –
2 | CC(/C=C/[C@@H](C)[C@H]1CC[C@@H]2[C@]1(C)CC[C@@H]1[C@@]3(C)CC[C@@H](O)C[C@@H]3C[C@@H](O)[C@]12O)C(C)COS(=O)(=O)O (some centres undefined) | 9.8 | – | – | –
3 | N=C(N)N/N=C/c1c(Cl)cccc1Cl [GUANABENZ] | 26 | Active | – | –
4 | O=C(O[C@@H]1Cc2c(O)cc(O)cc2O[C@@H]1c1cc(O)c(O)c(O)c1)c1cc(O)c(O)c(O)c1 | – | – | 96.3 | –
5 | CC(CCC[C@@H](C)[C@H]1CC[C@@H]2[C@]1(C)CC[C@@H]1[C@@]3(C)CC[C@@H](O)C[C@@H]3C[C@@H](O)[C@]12O)COS(=O)(=O)O (some centres undefined) | 12.7 | Active | 68 | Active
